# In paper PMC7326275 (PLoS Pathogens, 2020):
# Marks after values point to notes of the source that are not given here.
# Experiments:
# [1] = test system: B (D197N) virus (B/Singapore/GP702/2015); parameters: species or system ferret; AUC (total area under the viral shedding curve, raw data): unit not given beside the values; details: in vivo
# [2] = test system: H1N1 (H275Y) virus (A/Mississippi/3/2001 clone); parameters: species or system ferret; AUC (total area under the viral shedding curve, raw data): unit not given beside the values; details: in vivo
# [3] = test system: H1N1pdm09 (H275Y) virus (A/Perth/261/2009); parameters: species or system ferret; AUC (total area under the viral shedding curve, raw data): unit not given beside the values; details: in vivo
# H1N1pdm09 (H275Y) virus = test system: H1N1pdm09 (H275Y) virus; parameters: species or system Cynomolgus macaques (Macaca fascicularis); details: cynomolgus monkey, in vivo
# [4] = test system: H3N2 (E119V) virus (A/Fukui/45/2004); parameters: species or system ferret; AUC (total area under the viral shedding curve, raw data): unit not given beside the values; details: in vivo
# [5] = test system: B (H273Y) virus (B/Perth/265/2015); parameters: species or system ferret; AUC (total area under the viral shedding curve, raw data): unit not given beside the values; details: in vivo
compound,measurement,setting,value
"CCOC(=O)C1=C[C@@H](OC(CC)CC)[C@H](NC(C)=O)[C@@H](N)C1 [OST, oseltamivir]",% Ferrets Infected,[1],100 (4/4) %
same,"AUC (total area under the viral shedding curve, raw data)",[1],12.6 ± 2.3
same,Activity loss clinical score,[1],1 (key: ≤20; 21–40; 2: 41–60; 3: >60)
same,Duration of Shedding,[1],4.2 ± 1.0 days
same,Nasal inflammation Cell score,[1],0 (key: <1X10^6; 1 to 2 x10^6; 2.1 to 4 x10^6; 3: >4x10^6)
same,Nasal inflammation Protein score,[1],0 (key: <500; 500–1000; 2: 1001–1500; 3: >1500)
same,Peak Viral Titre,[1],4.5 ± 0.5 Log10 TCID50/ml
same,Temperature clinical score,[1],0 (key: 0: <1; 1.1–1.5; 1.5–2.0; 3: >2.0)
same,Total Score (clinical signs),[1],1
same,Weight loss clinical score,[1],0
same,viral titre on the single day with significant difference to placebo,[1],4.1 ± 0.4 Log10 TCID50/ml
same,% Ferrets Infected,[2],100 (4/4) %
same,"AUC (total area under the viral shedding curve, raw data)",[2],18.2 ± 4.3
same,Activity loss clinical score,[2],3 (key: ≤20; 21–40; 2: 41–60; 3: >60)
same,Duration of Shedding,[2],5.2 ± 1.25 days
same,Nasal inflammation Cell score,[2],1 (key: <1X10^6; 1 to 2 x10^6; 2.1 to 4 x10^6; 3: >4x10^6)
same,Nasal inflammation Protein score,[2],0 (key: <500; 500–1000; 2: 1001–1500; 3: >1500)
same,Peak Viral Titre,[2],4.6± 0.5 Log10 TCID50/ml
same,Temperature clinical score,[2],2 (key: 0: <1; 1.1–1.5; 1.5–2.0; 3: >2.0)
same,Total Score (clinical signs),[2],7
same,Weight loss clinical score,[2],1 (key: 0: Weight increase or no change; 1–3; 2: 3–6; 3: >6)
same,% Ferrets Infected,[3],100 (4/4) %
same,"AUC (total area under the viral shedding curve, raw data)",[3],23.4 ± 4.4
same,Activity loss clinical score,[3],3 (key: ≤20; 21–40; 2: 41–60; 3: >60)
same,Duration of Shedding,[3],6.0 ± 1.4 days
same,Nasal inflammation Cell score,[3],3 (key: <1X10^6; 1 to 2 x10^6; 2.1 to 4 x10^6; 3: >4x10^6)
same,Nasal inflammation Protein score,[3],3 (key: <500; 500–1000; 2: 1001–1500; 3: >1500)
same,Peak Viral Titre,[3],5.2 ± 0.6 Log10 TCID50/ml
same,Temperature clinical score,[3],3 (key: 0: <1; 1.1–1.5; 1.5–2.0; 3: >2.0)
same,Total Score (clinical signs),[3],15
same,Weight loss clinical score,[3],3 (key: 0: Weight increase or no change; 1–3; 2: 3–6; 3: >6)
same,"body weight or temperature, OST- vs placebo-treated animals",H1N1pdm09 (H275Y) virus,no significant differences
same,lower viral titre in tracheal lavages of OST dosed macaques on Day 3,H1N1pdm09 (H275Y) virus,not observed
same,"viral titres in nasal wash and tracheal lavages, OST vs placebo",H1N1pdm09 (H275Y) virus,not significantly different
same,% Ferrets Infected,[4],62 (5/8) %
same,"AUC (total area under the viral shedding curve, raw data)",[4],6.0 ± 7.7
same,Activity loss clinical score,[4],0 (key: ≤20; 21–40; 2: 41–60; 3: >60)
same,Duration of Shedding,[4],3.8 ± 0.5 days
same,Nasal inflammation Cell score,[4],0 (key: <1X10^6; 1 to 2 x10^6; 2.1 to 4 x10^6; 3: >4x10^6)
same,Nasal inflammation Protein score,[4],0 (key: <500; 500–1000; 2: 1001–1500; 3: >1500)
same,Peak Viral Titre,[4],4.8 ± 0.4 Log10 TCID50/ml
same,Temperature clinical score,[4],0 (key: 0: <1; 1.1–1.5; 1.5–2.0; 3: >2.0)
same,Total Score (clinical signs),[4],0
same,Weight loss clinical score,[4],0
same,% Ferrets Infected,[5],100 (4/4) %
same,"AUC (total area under the viral shedding curve, raw data)",[5],13.5 ± 1.0
same,Activity loss clinical score,[5],1 (key: ≤20; 21–40; 2: 41–60; 3: >60)
same,Duration of Shedding,[5],5.2 ± 0.5 days
same,Nasal inflammation Cell score,[5],0 (key: <1X10^6; 1 to 2 x10^6; 2.1 to 4 x10^6; 3: >4x10^6)
same,Nasal inflammation Protein score,[5],0 (key: <500; 500–1000; 2: 1001–1500; 3: >1500)
same,Peak Viral Titre,[5],3.8 ± 0.6 Log10 TCID50/ml
same,Temperature clinical score,[5],0 (key: 0: <1; 1.1–1.5; 1.5–2.0; 3: >2.0)
same,Total Score (clinical signs),[5],1
same,Weight loss clinical score,[5],0
